Laboratory results as given in US12473295B2, “Substituted straight chain spiro derivatives” (Janssen Pharmaceutica NV, priority 2019, dated 2025).

Tested on: Cor.4U Cardiomyocytes
Experiment: Ca2+-fluorescence assay in human pluripotent stem cell-derived cardiomyocytes (CTCM human), Cor.4U Cardiomyocytes
Assay type: cell-based
Set-up: key: Green: No concern; Yellow: Low concern; Red: High concern; Black: Very high concern due to arrhythmic events
Conditions: 30 min
Description: 7) Cardio-Electrophysiological Effects of the Testing Compounds in Synchronously Beating Human Pluripotent Stem Cell-Derived Cardiomyocytes (hSC-CMs) Using a Ca^2+-Fluorescence Assay (CTCM Human)
Compounds were tested in the 96-well plates
Compounds were tested at 0.1 μM, 0.2 μM, 0.5 μM, 1 μM, 2.5 μM and 5 μM (n=4 per dose) on Cor.4U 9-Cardiomyocytes or on iCell® Cardiomyocytes2 […]
Dimethylsulfoxide (DMSO). The solutions of the compound in DMSO or its solvent (final concentration of 0.1% DMSO; n=8)
Preparation of Test Article and Controls
Tested compounds were dissolved in DMSO at 1000-fold the intended concentrations. A compound “mother-plate” was made, containing the test compounds and positive and negative controls at 1000-fold the final concentrations. At the experiment day, these stock solutions were diluted with Tyrode (Sigma), supplemented with 10 mM HEPES (Gibco), to 2-fold the intended concentration (in round bottom compound plates). Final DMSO concentration in test solutions and vehicle control was 0.1%.
hSC-CMs (Cor.4U® Cardiomyocytes) were obtained from CDI (Ncardia, Germany). Cells are pre-plated and seeded in fibronectin-coated 96-well plates at a density suited to form a monolayer and maintained in culture in a stage incubator (37° C., 5% CO2), according to the instructions of the cell provider.
Before Start of Experiment
At least one hour before the start of the experiments the normal cell medium was replaced with Tyrode solution with Calcium dye (see below).
Cal 520 dye (AAT Bioquest) was dissolved in 11 ml of Tyrode supplemented with 10 mM HEPES and warmed up to 37° C. before adding to the cells.
35 μl cell culture medium was removed from each well and replaced with 35 μl of pre-warmed Cal 520 dye solution and cell plate was incubated for 45 min at 37° C./5% CO2. Cells were incubated for 5 min at 37° C.
Spontaneous electrical activity is recorded, using Cal520™ (AAT Bioquest) calcium fluorescence-dye signaling. This dye integrates the total intracellular calcium activity over the whole well. A bottle of Cal520 dye (50 μg, MW: 1103/mol) is dissolved with 50 μl DMSO as a stock solution of 0.9 mM. 50 μL of the stock solution of the dye was added to 10 ml Tryodes solution to have dye concentration of 4.5 μM. Subsequently, 35 μl of this dye solution was added into each well, to have a final dye concentration of 1.58 μM. The current dye protocol on this CTCM human assay was established recently (Ivan Kopljar et al, Journal of Pharmacological and toxicological methods 2018. 91: 80-86; Lu et al., Tox Sci 2019. 170 (2): 345-356).
Fluorescent signals (Ca^2+ transient morphology) were measured using the Functional Drug Screen System (FDSS/μCell; Hamamatsu, Japan) and the recordings were subsequently analyzed off-line, using appropriate software e.g. Notocord.
The cell plate was loaded into the FDSS/μCell for a test run: Ca^2+ transients were measured for 4 minutes to check for synchronous beating of the cardiomyocytes in each well. All 96 wells were measured simultaneously (sampling interval: 0.06 s, short exposure time: 10 ms; excitation wavelength 480 nm; emission wavelength 540 nm; FDSS/μCell warmed to 37° C.).
During the compound addition step, 100 μl of the respective double-concentrated test solutions was pipetted into each well simultaneously.
Data were analyzed off-line using appropriate software e.g. Notocord-Hem (version 4.3).
The following parameters of the Ca^2′ transient morphology were measured: • beat rate (BR) • amplitude of the Ca^2+ transient (Amp), • CTD90: Ca^2+ transient duration at 90% (time to 90% of the initial base value).
The presence of various ‘arrhythmia-like’ activities were also noted during the experimental periods. […]

CC(C)[C@@H](CCC(C)(C)N)N1CC2(CCN(c3ncnnc3Oc3ccc(F)cc3-c3cncnc3C3CC3)C2)C1 (single isomer, unassigned) [Compound 37, (*R)-5-(6-(6-(2-(4-cyclopropylpyrimidin-5-yl)-4-fluorophenoxy)-1,2,4-triazin-5-yl)-2,6-diazaspiro[3.4]octan-2-yl)-2,6-dimethylheptan-2-amine]
Green: Color @ 0.1 μM (hazard score) (0.1 μM) | Color @ 0.2 μM (hazard score) (0.2 μM) | Color @ 0.5 μM (hazard score) (0.5 μM) | Color @ 1 μM (hazard score) (1 μM) | Color @ 2.5 μM (hazard score) (2.5 μM) | Color @ 5 μM (hazard score) (5 μM)
